Test results published in patent publication US20260049072A1, “HETEROCYCLIC COMPOUND FOR INDUCING DEGRADATION OF MUTANT KRAS PROTEIN” (Astellas Pharma Inc., priority 2022, published 2026).
pIC50: −log10 of the molar value.

Assays:
[1] = target: T1, RAS G12D (Homo sapiens, UniProt P01116, G12D); experiment: RAS G12D degradation activity, Cell ELISA, AsPC-1; format: cell-based; conditions: AsPC-1 cells, 24 hours; read-out: DC50 (RAS G12D 50% degradation value)
T1 construct: host or cells: AsPC-1 human pancreatic cancer cells
Protocol: Test Example 1-2: Evaluation of RAS G12D Degradation Activity on Human KRAS G12D Mutant-Positive Pancreatic Cancer Line AsPC-1
The RAS G12D degradation activities of subject compounds were evaluated in the same manner as in Test Example 1-1 by measuring the expression levels of RAS G12D by a Cell ELISA method.
AsPC-1 cells (ATCC, CRL-1682) were seeded at 36 μL per well on a 384-well plate to give 2.0×10^4 cells per well. As for the cell culture conditions, RPMI-1640 medium (from Sigma-Aldrich) containing 10% fetal bovine serum was used in the presence of 5% CO2 at 37° C.
The next day, the subject compounds (10 points having final concentrations in the range of 3 μM to 0.1 nM) and DMSO, which was the solvent for the subject compounds, as a negative control were diluted 100-fold with a fresh medium and were each added at 4 μL per well, followed by culturing for 24 hours.
The next day, the procedures from the immobilization of the cells to before the addition of the blocking solution were performed by the same methods as in Test Example 1-1. A blocking solution (Intercept Blocking Buffer; from LI-COR Biosciences) was added at 20 μL per well. After allowing the plate to stand for 30 minutes at room temperature, the supernatant was removed by centrifugation. A solution obtained by diluting an anti-R-actin antibody (1,000-fold dilution) with the blocking solution was added to the wells of the positive control as a primary antibody, and a solution obtained by diluting an anti-Ras (G12D Mutant Specific) antibody (Ras (G12D Mutant Specific) (D8H7) Rabbit mAb; from Cell Signaling Technology; 1,000-fold dilution) and an anti-3-actin antibody (1,000-fold dilution) with the blocking solution was added to the other wells as primary antibodies, each at 15 μL per well. The plate was allowed to stand overnight at 4° C.
The next day, the supernatant was removed by centrifugation, and the plate was washed with PBS. The supernatant was removed by centrifugation, and a solution obtained by diluting an anti-rabbit IgG antibody and an anti-mouse IgG antibody 1,000-fold with the blocking solution was added at 15 μL per well as secondary antibodies. After allowing the plate to stand at room temperature for an hour, the supernatant was removed by centrifugation, and the plate was washed with PBS. After removing the supernatant, the plate was dried as it was with air at room temperature for two hours or more, and the 700-nm and 800-nm fluorescent signals were measured with Aerius.
With the RAS G12D signaling value at the time of addition of DMSO corrected with the signaling value of β-actin taken as 0% and with the RAS G12D signaling value under the conditions of staining with the anti-β-actin antibody alone taken as 100%, the RAS G12D degradation rates were calculated. The 50% degradation values (DC50) were calculated by Sigmoid-Emax model nonlinear regression analysis.

[2] = system: MIA PaCa-2 cells; experiment: Non-anchorage-dependent cell growth inhibition (spheroid 3D culture), MIA PaCa-2; format: cell-based; conditions: Homo sapiens, MIA PaCa-2, 144 h; KRAS G12C mutant-positive, 3D spheroid, six days, CellTiter-Glo 2.0; read-out: MIA PaCa-2 IC50
Protocol: Test Example 3: Evaluation of Non-Anchorage-Dependent Cell Growth Inhibitory Activity on Human KRAS G12V Mutant-Positive Pancreatic Cancer Line PA-TU-8902, Human KRAS G12D Mutant-Positive Pancreatic Cancer Line AsPC-1 or Human KRAS G12C Mutant-Positive Pancreatic Cancer Line MIA PaCa-2
The non-anchorage-dependent cell growth inhibitory activities of subject compounds were evaluated by spheroid 3D cell culture.
PA-TU-8902 cells, AsPC-1 cells or MIA PaCa-2 cells (RIKEN BRC, RCB2094) were seeded at 36 µL/well on a low-cell-adhesive round bottom 384-well plate (Prime Surface: from Sumitomo Bakelite) to give 5×10^2 cells per well. The PA-TU-8902 cells were under the same conditions as in Test Example 1-1, and the AsPC-1 cells were under the same conditions as in Test Example 1-2. For the MIA PaCa-2 cells, RPMI-1640 medium containing 10% fetal bovine serum was used in the presence of 5% CO2 at 37° C.
The next day, the subject compounds (6-9 points having final concentrations in the range of 3 μM to 0.3 nM) and DMSO, which was the solvent for the subject compounds, as a negative control were diluted 100-fold with a fresh medium and were each added at 4 μL per well. After culturing in the presence of 5% CO2 at 37° C. for six days, CellTiter-Glo 2.0 (from Promega) was added at 20 μL per well. After stirring with a plate mixer (from FINEPCR) at normal temperature for an hour, the luminescent signals were measured with ARVO X3 (from PerkinElmer).
With the signaling value in treatment with DMSO taken as 0% inhibition and with the signaling value in the medium alone without cells taken as 100% inhibition, the 50% inhibition values (IC50) were calculated by Sigmoid-Emax model nonlinear regression analysis.

[3] = system: PA-TU-8902 xenograft; experiment: Anti-tumor activity in PA-TU-8902 xenograft mouse; format: in vivo; conditions: 30 mg/kg, tail vein, twice a week for two weeks, male nude mice
Protocol: Test Example 4: Evaluation of Anti-Tumor Activity in Human KRAS G12V Mutant-Positive Pancreatic Cancer Line PA-TU-8902 or Human KRAS G12D Mutant-Positive Pancreatic Cancer Line PK-59 Xenograft Mouse
PA-TU-8902 cells or PK-59 cells (RIKEN BRC, RCB1901) were cultured using DMEM medium or RPMI-1640 medium containing 10% fetal bovine serum, respectively, in the presence of 5% CO2 at 37° C. The PA-TU-8902 cells or the PK-59 cells were collected and suspended in PBS, and two equivalents of VitroGel Hydrogel Matrix (from TheWell Bioscience) was added. A cell suspension prepared at 1.0-2.0×10^7 cells/mL was subcutaneously inoculated in a volume of 100 μL in 4- to 6-week-old male nude mice (BALB/c-nu (nu/nu), from The Jackson Laboratory Japan, Inc.). After about two weeks of the inoculation, the mice were divided into groups so that all the groups had approximately the same tumor volume and body weight, and administration of a subject compound was started on the next day. The test was conducted for five mice for each of a solvent group and a subject compound administration group. The solvent used was a solvent containing ethanol (from FUJIFILM Wako), an aqueous (2-hydroxypropyl)-β-cyclodextrin (HP-PCD) solution (from ROQUETTE), HCO-40 (from Nikko Chemicals Co., Ltd.) dissolved in a 5% glucose solution (from Otsuka Pharmaceutical) at a ratio of 4%, 0.5%, and 9%, respectively. The compound was dissolved using the solvent. The subject compound dissolved in the solvent or the solvent was administered into tail vein. The administration was performed once or twice a week for two weeks. The tumor size and the body weight were measured twice a week. The tumor volume was calculated by using the following formula.
[Tumor volume (mm^3)]=[Major axis of tumor (mm)]×[Minor axis of tumor (mm)]^2×0.5
The tumor growth inhibition (%) by the subject compound was calculated with the tumor volume of the subject compound administration group on the previous day of the start of the administration taken as 100% inhibition and the tumor volume of the solvent group of the day of the final measurement taken as 0% inhibition.

T1 sequence (P01116 1-188 isoform P01116-2 G12D): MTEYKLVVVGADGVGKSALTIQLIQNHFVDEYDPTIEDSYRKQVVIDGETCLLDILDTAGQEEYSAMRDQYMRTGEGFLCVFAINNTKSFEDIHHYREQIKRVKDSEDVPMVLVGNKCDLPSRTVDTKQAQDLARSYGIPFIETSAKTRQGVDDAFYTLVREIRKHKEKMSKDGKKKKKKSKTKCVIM

DC50 [1] | pIC50 [2] | Compound | Anti-tumor activity at final measurement (PA-TU-8902 xenograft mouse), tumor growth inhibition [3]
4 nM | 7.89 | CO[C@@H](C)COc1nc(NC2CN(C(=O)O[C@H]3C[C@@H](N(C)C)C3)C2)c2cc(C3CC3)c(-c3c(C)c(F)cc4[nH]ncc34)c(OCc3ccc(-c4cn([C@H](C(=O)N5C[C@H](O)C[C@H]5C(=O)N[C@@H](CO)c5ccc(-c6scnc6C)cc5)C(C)C)nn4)cc3)c2n1 (atropisomer, axis not shown; (M)) [Example 11, (1s,3R)-3-(dimethylamino)cyclobutyl 3-({(7M)-6-cyclopropyl-7-(6-fluoro-5-methyl-1H-indazol-4-yl)-8-{[4-(1-{(2S)-1-[(2S,4R)-4-hydroxy-2-({(1R)-2-hydroxy-1-[4-(4-methyl-1,3-thiazol-5-yl)phenyl]ethyl}carbamoyl)pyrrolidin-1-yl]-3-methyl-1-oxobutan-2-yl}-1H-1,2,3-triazol-4-yl)phenyl]methoxy}-2-[(2S)-2-methoxypropoxy]quinazolin-4-yl}amino)azetidine-1-carboxylate] | 73% inhibition
6 nM | 7.89 | CO[C@@H](C)COc1cc(OC2CN(C(=O)O[C@H]3C[C@@H](N(C)C)C3)C2)c2cc(C3CC3)c(-c3c(C)c(F)cc4[nH]ncc34)c(OCc3ccc(-c4cn([C@H](C(=O)N5C[C@H](O)C[C@H]5C(=O)N[C@@H](CO)c5ccc(-n6cncn6)cc5)C(C)C)nn4)cc3)c2n1 (atropisomer, axis not shown; (M)) [Example 13, (1s,3R)-3-(dimethylamino)cyclobutyl 3-({(7M)-6-cyclopropyl-7-(6-fluoro-5-methyl-1H-indazol-4-yl)-8-{[4-(1-{(2S)-1-[(2S,4R)-4-hydroxy-2-({(1R)-2-hydroxy-1-[4-(1H-1,2,4-triazol-1-yl)phenyl]ethyl}carbamoyl)pyrrolidin-1-yl]-3-methyl-1-oxobutan-2-yl}-1H-1,2,3-triazol-4-yl)phenyl]methoxy}-2-[(2S)-2-methoxypropoxy]quinolin-4-yl}oxy)azetidine-1-carboxylate] | 57% inhibition
3 nM | 7.70 | CO[C@@H](C)COc1cc(OC2CN(C(=O)NCCN(C)C)C2)c2cc(C3CC3)c(-c3c(C)c(F)cc4[nH]ncc34)c(OCc3ccc(-c4cn([C@H](C(=O)N5C[C@H](O)C[C@H]5C(=O)N[C@@H](CO)c5ccc(-n6cncn6)cc5)C(C)C)nn4)cc3)c2n1 (atropisomer, axis not shown; (M)) [Example 12, (4R)-1-[(2S)-2-(4-{4-[({(7M)-6-cyclopropyl-4-[(1-{[2-(dimethylamino)ethyl]carbamoyl}azetidin-3-yl)oxy]-7-(6-fluoro-5-methyl-1H-indazol-4-yl)-2-[(2S)-2-methoxypropoxy]quinolin-8-yl}oxy)methyl]phenyl}-1H-1,2,3-triazol-1-yl)-3-methylbutanoyl]-4-hydroxy-N-{(1R)-2-hydroxy-1-[4-(1H-1,2,4-triazol-1-yl)phenyl]ethyl}-L-prolinamide] | 61% inhibition
